According to ChEMBL document CHEMBL1201862, “PubChem BioAssay data set” (2004):
Blank lines part the entries; values can stand above or below the compound they belong to. Active and inactive are the calls of the source.

Tests used:
[1] = target: 5-hydroxytryptamine receptor 2A (Mus musculus, UniProt P35363); assay type: functional, cell-based;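 also: CHO-K1 cells with tagged receptor and beta-arrestin; agonist potency measured as compound-induced activation of the receptor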
[2] = target: Mu-type opioid receptor (Homo sapiens, UniProt P35372); assay type: functional, cell-based;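 also: U2OS cells with beta-arrestin recruitment to OPRM1 by beta-gal complementation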
[3] = target: T1, DNA repair protein RAD52 homolog (Homo sapiens, UniProt P43351); assay type: functional, biochemical
T1 sequence (P43351 whole entry): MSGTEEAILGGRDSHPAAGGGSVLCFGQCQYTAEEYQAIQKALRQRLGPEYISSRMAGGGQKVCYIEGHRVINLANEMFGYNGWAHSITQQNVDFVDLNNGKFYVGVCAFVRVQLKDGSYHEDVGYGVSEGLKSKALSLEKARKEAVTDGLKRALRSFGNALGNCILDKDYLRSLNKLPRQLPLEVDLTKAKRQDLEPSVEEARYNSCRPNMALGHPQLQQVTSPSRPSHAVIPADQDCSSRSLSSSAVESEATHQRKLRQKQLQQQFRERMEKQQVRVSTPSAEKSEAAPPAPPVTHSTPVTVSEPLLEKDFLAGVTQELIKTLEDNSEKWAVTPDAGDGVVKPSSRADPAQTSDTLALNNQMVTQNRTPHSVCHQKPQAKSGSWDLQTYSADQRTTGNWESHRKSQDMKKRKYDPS

[4] = target: DNA repair and recombination protein RAD54-like (Homo sapiens, UniProt Q92698); experiment: inhibitors of human RAD54 branch migration, confirmation, biochemical, fluorescence, cherry-picked samples, dose series (AID 651657); assay type: functional
[5] = HEK293 cell viability, dose response, counter-screen for EBV LMP1 inhibitor project, dry powder, set 2 (AID 624374); assay type: functional
[6] = nonselective inhibitors of cellular cAMP signaling, dose response, counter-screen for MC4R biased antagonist project, cell-based, TR-FRET cAMP detection (AID 602305); assay type: functional;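 also: U2OS cells stimulated with forskolin near its EC80 as the cAMP inducer; potency is for inhibition of forskolin-stimulated cAMP signaling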
[7] = target: Melanocortin receptor 4 (Homo sapiens, UniProt P32245); experiment: MC4R antagonist potency on cAMP, dose response, cell-based, TR-FRET, biased antagonists (AID 602298); assay type: functional;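 also: antagonist potency against agonist-stimulated cAMP production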
[8] = target: Hepatocyte nuclear factor 4-alpha (Homo sapiens, UniProt P41235); assay type: functional, cell-based;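 also: biochemical luminescence-based dose-response counterscreen measuring inhibition of HNF4 dimerization, run alongside a screen for blockers of ABHD5–perilipin-5 interaction; split luciferase complementation of HNF4 fusion proteins in cell lysate measuring dimerization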
[9] = test system: HeLa; experiment: HeLa cell cytotoxicity, dose response, cytotoxicity control for MITF activator project, CellTiter-Glo luminescence, cherry-pick samples (AID 540259); assay type: functional, cell-based; conditions: Homo sapiens
[10] = CRF-BP/CRF-R2 complex antagonists, dose response, cell-based, uHTS hits, 384-well (AID 651639); assay type: functional, Homo sapiens; conditions: read-out: IC50_Mean
[11] = target: T2, Corticotropin-releasing factor receptor 2/Corticotropin-releasing factor-binding protein (Homo sapiens, UniProt P24387+Q13324); experiment: Dose Response confirmation of uHTS hits for small molecule antagonists of the CRF-binding protein and CRF-R2 receptor complex.; assay type: functional; conditions: read-out: IC50_Mean
T2 sequence (Q13324 whole entry): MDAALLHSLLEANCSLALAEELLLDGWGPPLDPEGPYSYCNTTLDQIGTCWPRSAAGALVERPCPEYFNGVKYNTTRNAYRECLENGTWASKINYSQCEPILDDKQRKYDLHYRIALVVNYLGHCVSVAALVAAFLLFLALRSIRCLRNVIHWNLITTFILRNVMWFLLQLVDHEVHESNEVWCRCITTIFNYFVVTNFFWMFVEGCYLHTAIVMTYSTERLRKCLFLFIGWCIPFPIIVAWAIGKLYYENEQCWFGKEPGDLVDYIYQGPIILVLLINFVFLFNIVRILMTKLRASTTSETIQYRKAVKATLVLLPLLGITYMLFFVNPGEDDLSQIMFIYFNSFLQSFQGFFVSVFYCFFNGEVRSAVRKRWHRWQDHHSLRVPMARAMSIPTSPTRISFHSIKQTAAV
T2 sequence (P24387 whole entry): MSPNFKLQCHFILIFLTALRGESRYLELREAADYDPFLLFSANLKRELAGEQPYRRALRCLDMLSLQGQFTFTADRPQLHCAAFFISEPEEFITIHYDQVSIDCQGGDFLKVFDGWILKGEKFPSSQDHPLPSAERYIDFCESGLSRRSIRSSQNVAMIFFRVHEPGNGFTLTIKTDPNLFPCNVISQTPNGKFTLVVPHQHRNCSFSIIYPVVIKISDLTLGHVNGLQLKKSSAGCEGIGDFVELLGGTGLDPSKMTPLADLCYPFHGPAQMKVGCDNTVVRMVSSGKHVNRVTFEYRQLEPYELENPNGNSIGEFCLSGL

[12] = target: T2, Corticotropin-releasing factor receptor 2/Corticotropin-releasing factor-binding protein; experiment: activators of CRF receptor 2 with binding protein – uHTS hits, confirmation (AID 602473); assay type: functional; conditions: read-out: EC50_Mean

Sequence of Mu-type opioid receptor (P35372 whole entry): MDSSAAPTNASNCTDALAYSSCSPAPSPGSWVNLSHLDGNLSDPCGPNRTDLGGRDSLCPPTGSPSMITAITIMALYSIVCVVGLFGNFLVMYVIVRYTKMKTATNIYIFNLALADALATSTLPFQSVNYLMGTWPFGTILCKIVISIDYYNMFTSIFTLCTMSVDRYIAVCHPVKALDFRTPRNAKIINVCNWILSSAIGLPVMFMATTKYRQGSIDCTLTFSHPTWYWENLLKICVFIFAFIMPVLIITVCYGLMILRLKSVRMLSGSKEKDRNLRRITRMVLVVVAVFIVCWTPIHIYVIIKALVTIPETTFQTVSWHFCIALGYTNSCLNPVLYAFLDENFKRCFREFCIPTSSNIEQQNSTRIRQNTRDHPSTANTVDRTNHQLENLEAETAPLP
Sequence of DNA repair and recombination protein RAD54-like (Q92698 whole entry): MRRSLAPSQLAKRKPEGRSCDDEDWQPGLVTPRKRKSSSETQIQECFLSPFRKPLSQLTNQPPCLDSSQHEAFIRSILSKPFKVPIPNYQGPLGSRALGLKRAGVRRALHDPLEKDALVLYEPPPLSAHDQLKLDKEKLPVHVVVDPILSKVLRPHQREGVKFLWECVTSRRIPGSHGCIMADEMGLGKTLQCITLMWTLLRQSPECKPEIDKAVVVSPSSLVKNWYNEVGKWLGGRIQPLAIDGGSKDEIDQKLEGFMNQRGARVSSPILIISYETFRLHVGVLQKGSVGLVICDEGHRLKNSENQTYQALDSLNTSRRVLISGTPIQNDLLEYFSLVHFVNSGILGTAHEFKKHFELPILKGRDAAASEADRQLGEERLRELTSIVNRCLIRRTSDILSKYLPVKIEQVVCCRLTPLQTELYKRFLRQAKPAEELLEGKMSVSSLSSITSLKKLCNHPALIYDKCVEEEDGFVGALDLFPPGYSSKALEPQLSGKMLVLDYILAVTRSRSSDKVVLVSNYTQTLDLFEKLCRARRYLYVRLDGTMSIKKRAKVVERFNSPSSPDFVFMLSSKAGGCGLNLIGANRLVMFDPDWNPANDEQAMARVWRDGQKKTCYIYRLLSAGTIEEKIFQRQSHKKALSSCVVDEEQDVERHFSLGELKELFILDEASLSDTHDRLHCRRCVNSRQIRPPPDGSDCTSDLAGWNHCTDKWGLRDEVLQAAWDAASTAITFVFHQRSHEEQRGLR
Sequence of Hepatocyte nuclear factor 4-alpha (P41235 whole entry, the tested form may be a part): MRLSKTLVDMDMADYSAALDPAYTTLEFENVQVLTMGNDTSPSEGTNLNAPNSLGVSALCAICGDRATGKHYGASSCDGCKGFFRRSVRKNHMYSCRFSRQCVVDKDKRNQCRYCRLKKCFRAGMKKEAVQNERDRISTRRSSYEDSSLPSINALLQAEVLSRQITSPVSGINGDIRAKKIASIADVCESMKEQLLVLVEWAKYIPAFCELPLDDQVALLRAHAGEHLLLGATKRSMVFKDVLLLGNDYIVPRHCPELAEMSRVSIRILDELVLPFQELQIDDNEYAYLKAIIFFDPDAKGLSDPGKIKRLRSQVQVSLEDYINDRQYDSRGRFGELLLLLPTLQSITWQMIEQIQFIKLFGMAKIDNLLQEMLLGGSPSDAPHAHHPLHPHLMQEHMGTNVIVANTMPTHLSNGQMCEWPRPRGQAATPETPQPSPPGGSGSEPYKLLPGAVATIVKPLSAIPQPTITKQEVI
Sequence of 5-hydroxytryptamine receptor 2A (P35363 whole entry): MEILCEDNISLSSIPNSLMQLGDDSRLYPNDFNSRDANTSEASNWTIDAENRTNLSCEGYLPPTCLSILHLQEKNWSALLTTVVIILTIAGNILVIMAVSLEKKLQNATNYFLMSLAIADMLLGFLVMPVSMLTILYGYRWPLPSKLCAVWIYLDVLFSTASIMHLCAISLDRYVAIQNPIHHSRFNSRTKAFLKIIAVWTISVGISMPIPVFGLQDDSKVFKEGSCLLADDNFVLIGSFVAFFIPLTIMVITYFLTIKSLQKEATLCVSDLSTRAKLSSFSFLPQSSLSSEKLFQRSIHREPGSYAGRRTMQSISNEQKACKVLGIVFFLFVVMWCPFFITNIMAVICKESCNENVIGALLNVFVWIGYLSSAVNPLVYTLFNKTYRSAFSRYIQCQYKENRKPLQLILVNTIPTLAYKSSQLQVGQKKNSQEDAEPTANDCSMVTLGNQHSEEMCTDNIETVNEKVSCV
Sequence of Melanocortin receptor 4 (P32245 whole entry, the tested form may be a part): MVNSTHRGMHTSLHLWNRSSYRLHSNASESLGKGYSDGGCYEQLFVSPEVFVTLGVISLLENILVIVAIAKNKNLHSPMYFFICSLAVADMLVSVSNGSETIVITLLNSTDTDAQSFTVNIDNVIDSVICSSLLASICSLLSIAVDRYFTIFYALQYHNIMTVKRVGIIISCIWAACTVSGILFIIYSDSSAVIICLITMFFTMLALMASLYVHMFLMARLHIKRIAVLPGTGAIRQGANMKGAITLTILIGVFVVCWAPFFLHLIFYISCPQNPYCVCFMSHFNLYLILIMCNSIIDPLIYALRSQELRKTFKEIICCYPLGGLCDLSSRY

SMILES: COc1ccc(-c2cc3nc(NCCCN(C)C)n(C)c(=O)c3s2)cc1OC
AC50 [3]: 4.79 µM (active)
AC50 [4]: 11.5 µM (active)

SMILES: C[C@H](CO)N1C[C@H](C)[C@H](CN(C)Cc2ccc(Oc3ccccc3)cc2)Oc2ccc(NC(=O)CCCN(C)C)cc2C1=O
AbsAC35 [5]: 286.99 µM

SMILES: CC(NC(=O)COC(=O)CNS(=O)(=O)/C=C/c1ccccc1)c1ccccc1 (configuration not stated)
IC50 [6]: > 64.6 µM (inactive)
IC50 [7]: > 64.6 µM (inactive)

SMILES: Cc1nc(NC(C)C)c2cnn(CCc3ccccc3)c2n1
AC50 [9]: 84.6 µM (active)

SMILES: CN(CC(=O)Nc1ccccc1Br)C(=O)c1cc2c(s1)CCCCC2
AC50 [9]: > 350 µM (inactive)

The remaining lines, values ahead:

EC50 [1]: 17.2 µM (inactive)
EC50 [2]: 92.5 µM (inactive)
SMILES: COc1ccc(S(=O)(=O)NCC(c2ccc3c(c2)OCO3)N2CCN(c3ccccc3)CC2)cc1 (configuration not stated)

AC50 [4]: 72.5 µM (active)
SMILES: O=C(Nc1cccc(Br)c1)c1cc(S(=O)(=O)N2CCOCC2)cs1

EC50 [1]: 4.33 µM (active)
EC50 [2]: 92.5 µM (inactive)
SMILES: CC(C)[C@H](NC(=O)c1ccc(C(C)(C)C)cc1)C(=O)N1CCN(Cc2ccc3c(c2)OCO3)CC1

IC50 [8]: 5.5 µM (active)
SMILES: CC(=O)Oc1ccc(C23c4ccccc4C2(OC(C)=O)c2cc(OC(C)=O)ccc23)cc1 (configuration not stated)

IC50 [8]: 25.1 µM (inactive)
SMILES: CCCc1nc(C)c2c(=O)[nH]c(-c3cc(S(=O)(=O)N4CCN(CC)CC4)ccc3OCC)nn12

IC50 [10]: > 20 µM (inactive)
IC50 [11]: 9.98 µM (active)
EC50 [12]: > 53 µM (inactive)
SMILES: Cc1ccc(S(=O)(=O)NC(=Nc2ccc([N+](=O)[O-])cc2[N+](=O)[O-])c2ccccc2)cc1
